In patent US20140128337A1, “Curcuminoids in Combination Docetaxel for the Treatment of Cancer and Tumour Metastasis” (Institut National de la Sante et de la Recherche Medicale …, priority 2009, published 2014):

Columns and labels:
MCF7 cells = assay: MCF7 cell survival, Ho assay; type: cell-based, human; details: DTX 5 uM (clinical dose), 72 h, P<0.01
Experimental: (§1) The drugs were administered in DMSO 0.5%. Cell proliferation and attachment to the matrix were determined by measuring the amount of resazurin reduced by esterases from living cells (RTT assay) and by measuring the amount of attached biomass with the DNA binding agent (Ho 33342). Fluorescence was assayed at 590/630 nm (RTT assay) or 360/460 nm (Ho assay) as described in (Barthomeuf et al. Planta Med 2002).
Treatment by DTX at clinical dose contributes to induction of drug resistance. […] We finally examined the effect of DTX on MCF7 cell survival and HIF-1 transcription. In this aim, DTX was tested at 2 concentrations 1 nM and 5 uM (a concentration representative of blood levels after DTX administration, Investigator Brochure 2002). Al tests were carried out on highly proliferative cells cultured in MEM medium supplemented with 10% FBS. Survival was assayed with the Ho assay after 6 h and 72 h.

survivin = assay: Western blot of survivin in MCF7 cells; type: cell-based, human; details: MCF7, DTX at clinical doses
Experimental: (§2) Western blot: After treatment, control and treated cells were washed with PBS, then incubated in PBS containing 1 mM of each NaF and Na3VO4 and solubilized on ice in lysis buffer [150 mM NaCl, 10 mM Tris-HCl, pH 7.4, 1 mM EDTA, 1 mM EGTA, 1 mM NaF, 1 mM Na3VO4, 0.5% (v/v) Nonidet P-40, and 1% (v/v) Triton X-100] or in FosRipa buffer (10 mM Tris/HCl pH 7.5, 250 mM NaCl, 0.1% SDS, 1% Nonidet P40, 1% sodium deoxycholate). When needed insoluble pellets were solubilized in Laemmli samples buffer (62.5 mM Tris-HCl pH 6.8, 2.4% SDS, 100 mM DDT, 10% glycerol, 1 mM EDTA, 0.001% bromphenol blue), heated for 5 min at 96° C. and centrifuged briefly before loading. Protein concentrations and Western blotting was performed according to standard procedures. Equal amounts of protein (50 μg) were loaded for separation via 7.5% SDS-PAGE. Mouse monoclonal antisera directed against HIF-1α or survivin were used as primary antibodies and horseradish peroxidase-coupled anti-mouse (Dako) as secondary antibodies.

[1] = DTX treatment alone; cited from earlier work
HIF-1α = assay: Western blot of HIF-1α in MCF7 cells; type: cell-based, human
Experimental: as §2, with “When needed insoluble pellets were solubilized in Laemmli samples buffer (62.5 mM Tris-HCl pH 6.8, 2.4% SDS, 100 mM DDT, 10% glycerol, 1 mM EDTA, 0.001% bromphenol blue), heated for 5 min at 96° C. and centrifuged briefly before loading.” left out, “Equal amounts of protein (50 μg) were loaded for separation via 7.5% SDS-PAGE.” left out
Then HIF-1α was assessed by Western blotting.

P-glycoprotein (Pgp) = target: T1, P-glycoprotein (Pgp) (Homo sapiens, UniProt P08183); assay: Inhibition of [3H]-VBL efflux by MDCK-MDR1 cells; type: cell-based; details: CV-3988 10 uM, 30-min pre-exposure
T1 construct: expressed in transfected cells; host or cells: MDCK (canine kidney) cells stably transfected with human MDR1
T1 sequence (P08183 whole entry): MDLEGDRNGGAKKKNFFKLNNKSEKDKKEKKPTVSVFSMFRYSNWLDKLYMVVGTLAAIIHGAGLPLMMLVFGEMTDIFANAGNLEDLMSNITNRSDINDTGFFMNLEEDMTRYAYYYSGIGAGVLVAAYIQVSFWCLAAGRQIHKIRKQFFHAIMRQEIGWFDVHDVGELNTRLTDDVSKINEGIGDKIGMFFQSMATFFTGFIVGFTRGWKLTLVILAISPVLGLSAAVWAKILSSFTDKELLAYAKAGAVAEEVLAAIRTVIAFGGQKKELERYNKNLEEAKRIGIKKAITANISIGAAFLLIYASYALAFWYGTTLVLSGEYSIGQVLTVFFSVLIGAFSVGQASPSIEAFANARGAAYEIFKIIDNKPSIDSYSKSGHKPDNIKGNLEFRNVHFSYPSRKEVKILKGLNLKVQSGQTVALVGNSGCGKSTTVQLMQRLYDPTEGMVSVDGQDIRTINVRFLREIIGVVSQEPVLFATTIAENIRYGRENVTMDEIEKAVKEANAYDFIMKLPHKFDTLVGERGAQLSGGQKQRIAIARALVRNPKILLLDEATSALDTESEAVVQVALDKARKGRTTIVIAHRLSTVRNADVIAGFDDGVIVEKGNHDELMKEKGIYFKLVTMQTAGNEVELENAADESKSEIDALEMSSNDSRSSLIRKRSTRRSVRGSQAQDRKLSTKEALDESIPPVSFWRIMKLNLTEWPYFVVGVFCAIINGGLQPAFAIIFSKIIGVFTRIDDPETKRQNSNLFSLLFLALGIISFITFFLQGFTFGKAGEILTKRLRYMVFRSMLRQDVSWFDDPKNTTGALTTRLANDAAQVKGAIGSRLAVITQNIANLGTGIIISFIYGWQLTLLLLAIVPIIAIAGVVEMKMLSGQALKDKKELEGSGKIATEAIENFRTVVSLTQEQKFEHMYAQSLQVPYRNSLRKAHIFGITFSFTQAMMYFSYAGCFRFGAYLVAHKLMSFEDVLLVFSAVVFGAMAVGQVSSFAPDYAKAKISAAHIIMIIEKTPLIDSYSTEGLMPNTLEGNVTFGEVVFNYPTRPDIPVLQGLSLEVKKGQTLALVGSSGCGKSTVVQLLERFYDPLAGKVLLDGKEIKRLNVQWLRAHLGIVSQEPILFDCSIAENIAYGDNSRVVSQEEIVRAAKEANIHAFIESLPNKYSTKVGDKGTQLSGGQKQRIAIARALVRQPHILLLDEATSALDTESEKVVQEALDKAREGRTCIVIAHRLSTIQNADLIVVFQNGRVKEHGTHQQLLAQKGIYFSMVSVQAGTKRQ
Experimental: Inhibition of [^3H]-VBL efflux by MDCK-MDR1 cells: [^3H]-VBL was determined by scintillation counting accordingly to (Barthomeuf et al. Cancer Chemother Pharmacol 2005; 56: 173-81). […] The cells were then exposed for 120 min to 20 nM of ^3H-VBL (0.23 μCi). ^3H-VBL accumulation was stopped by washing the cells (5-fold) with cold PBS (150 mM NaCl, 2.7 mM KCl, 1.3 mM KH2PO4, 8.1 mM, Na2HPO4, pH 7.4). The cells were lysed with 0.1% Triton X-100 and the radioactivity was counted.

PAF synthesis = assay: PAF synthesis, incorporation of [3H]-acetate into lyso-PAF in MDCK-MDR1 cells; type: cell-based, canine; details: curcumin 30 min, doses observable in man
Experimental: PAF synthesis: PAF synthesis was measured by incorporation of [^3H]-acetate into lyso-PAF accordingly to the protocol described in (Bernatchez PN et al. Br. J. Pharmacol. 2001 134: 1252-1262 and Barthomeuf C. et al. Free Rad Biol Med 2006, 40: 581-590). […] The reaction was stopped by addition of acidified methanol. Polar lipids were isolated according to Bligh and Dyer. After solvent evaporation under N2, ^3H-PAF was purified by HPLC on silica gel, and quantified by radioactivity counting vs authentic ^3H-PAF.

primary fibroblasts = assay: Cell proliferation, resazurin reduction test (RTT assay); type: cell-based, human; details: curcumin 10 uM
Experimental: (§3) Cell culture: Madine Darby canine kidney (MDCK-MDR1) cells, provided by Amanda Yancy (AstraZeneca Pharmaceuticals), were cultured in DMEM supplemented with 10% FBS as reported previously (Barthomeuf et al. 2005). Human primary fibroblasts were purchased from Biopredic International (Rennes, France). Human MCF7 (ER+breast), A549 (non small cell lung), PC3 (androgen-resistant prostate) DLD1 (colon), PA1 (ovary), MDA-mb-231 (ER-, PTEN positive), MDA-mb-468 (ER-, PTEN negative) carcinoma and U87 (glioblastoma) lines were purchased from the European Collection of Cell Cultures (ECACC,
(§4) Salibury, UK) or the American Type Culture Collection (ATCC, Manassas, Va.). Cells were cultured in modified Eagle's medium (MEM) supplemented with 10% fetal calf serum, 2 mM L-glutamine and 100 units/ml penicillin, and 100 μg/ml streptomycin (Barthomeuf et al. 2002) or MEM supplemented with 1 mM sodium pyruvate and containing 10% FBS and antibiotics (U-87). The cells were cultured at 37° C. under a humidified 95%-5% (v/v) mixture of air and CO2.
as §1
(§5) The human tested lines include highly invasive U87 glioblastoma cells (SphK1 overexpression), 5 human carcinoma lines: weakly invasive MCF7 (estrogen receptor (ER) and PTEN positive) and metastatic MDA-mb-468 (ER and PTEN lack of function) breast carcinoma cells, metastatic PC3 (androgen resistant, p53 loss of function) prostate carcinoma cells, highly proliferative PA1 ovarian carcinoma cells and DLD1 (Pgp-positive) colon carcinoma cells. Primary fibroblasts were used as a model of human non-tumoral cells. Assays were conducted on exponentially growing human cells cultured overnight in MEM supplemented with 10% FBS. […] This supports a value of curcumin/DTX combination for treatment of tumors displaying these characteristics.

[2] = test system: MDA-mb-468 breast carcinoma cells; assay: as above; type: cell-based, human
Experimental: as §3, §4, §1, §5

[3] = test system: PA1 ovarian carcinoma cells; assay: as above; type: cell-based, human; details: curcumin 10 uM
Experimental: as §3, §4, §1, §5

[4] = test system: advanced colorectal cancer; details: 36-180 mg/day; cited from earlier work
U87 glioblastoma cells = assay: Curcumin/DTX co-treatment, cell proliferation and survival; type: cell-based, human; details: curcumin 10 uM + DTX 1 nM, 48 h co-treatment
Experimental: as §3
as §4, with “The cells were cultured at 37° C. under a humidified 95%-5% (v/v) mixture of air and CO2.” left out
as §1

[5] = test system: panel of cancer lines issued from human solid tumors; assay: Antiproliferative effect on a panel of cancer lines, resazurin reduction test; type: cell-based; details: curcumin 10 uM
Experimental: as §3
as §4, with “The cells were cultured at 37° C. under a humidified 95%-5% (v/v) mixture of air and CO2.” left out
as §1, with “2002). […]” for “2002).”

For CC(=O)O[C@@]12CO[C@@H]1C[C@H](O)[C@@]1(C)C(=O)[C@H](O)C3=C(C)[C@@H](OC(=O)[C@H](O)[C@@H](NC(=O)OC(C)(C)C)c4ccccc4)C[C@@](O)([C@@H](OC(=O)c4ccccc4)[C@H]21)C3(C)C [DTX, (2R,3S)-N-carboxy-3-phenylisoserine, N-tert-butyl ester, 13-ester with 5, 20-epoxy-1,2,4,7, 10, 13-hexahydroxytax-11-en-9-one 4-acetate 2-benzoate, trihydrate], the MCF7 survival decreased (MCF7 cells) is given as 92%, the “survivin expression in surviving cells vs control” value (survivin) is given as “higher amount of survivin than control cells” and the “number of objective responses usually observed” value [1] is given as “around 50%”. For the same molecule, the “HIF-1α in resistant sub-populations vs control” value (HIF-1α; MCF7, DTX at clinical doses) was “higher amounts of HIF-1α than control cells” and the “HIF-1α in resistant sub-populations vs control” value (HIF-1α; MCF7, DTX at low concentration) was “less HIF-1α than control cells”.
In the case of CCCCCCCCCCCCCCCCCCNC(=O)OCC(COP(=O)([O-])OCC[n+]1ccsc1)OC (stereo not drawn) [CV-3988], the “(3H)-VBL accumulation in MDCK-MDR1 cells” value (P-glycoprotein (Pgp)) is reported as “promotes (^3H)-VBL accumulation”.
In the case of COc1cc(/C=C/C(=O)CC(=O)/C=C/c2ccc(O)c(OC)c2)ccc1O [curcumin, (1E,6E)-1,7-bis (4-hydroxy-3-methoxyphenyl)-1,6-heptadiene-3,5-dione], the PAF synthesis (PAF synthesis) is reported as “down-regulation of PAF synthesis”, the “toxicity for primary fibroblasts” value (primary fibroblasts) is reported as “without significant toxicity” and the proliferation decreased ([2]; curcumin 10 uM) is reported as 23%. The “effect of co-treatment on DTX efficacy” value ([2]; curcumin 10 uM + DTX 1 nM, 48 h co-treatment) was “enhances in a synergistic manner DTX efficacy”, the “proliferation of PA1 cells” value [3] was “suppressed” and the “stabilisation, patients” value [4] was 5/15. For the same molecule, the “effect of co-treatment on DTX efficacy” value (U87 glioblastoma cells) was “enhances in a synergistic manner DTX efficacy”, the “growth of all tested tumor lines” value [5] was “strongly impairs the growth” and the “HIF-1α level after curcumin post-treatment” value (HIF-1α; MCF7, DTX 5 uM 72 h, then 6 h EGF 10 ng/mL + MG-132 with or without curcumin 10 uM) was “lower amount of HIF-1α”.
